A melting point compilation (Tetko et al.; mined from patent text by program, amines drawn as free bases though some values may be those of a salt)

Point of comparison: `CCCC(CCC)(CCC)NC(=O)NC`, melting point 120 °C. Against it:
- COC(/C=C/c1cccc(Cl)c1)=N/c1ccc(C(O)c2cncn2Cc2ccc(C#N)cc2)cc1 (centres undefined) — higher, 192 °C
- Nc1c(F)c(N2CCCC(n3ccnn3)C2)c(F)c2c1c(=O)c(C(=O)O)cn2C1CC1 (centres undefined) — higher, 252 to 254 °C
- CCn1c(=O)c2c(nc(/C=C/c3ccc(OC(=O)c4ccccc4)cc3)n2C)n(CC)c1=O — higher, 208 to 209 °C
- CS(=O)(=O)NC[C@@H]1CN(c2ccc(N3CCC(O)(CN=[N+]=[N-])CC3)c(F)c2)C(=O)O1 — higher, 142 to 144 °C
- CC(C)(C(=O)c1ccc(OCC(=O)O)cc1)N1CCN(c2ccncc2)CC1 — higher, 278 to 279 °C
- O=C(O)Cc1c[nH]c(-c2cc3nc(C(=O)O)c(=O)[nH]c3cc2[N+](=O)[O-])n1 — higher, > 300 °C
- CNc1ncnc2c1ncn2C1OC(CO)C(O)C1O (centres undefined) — higher, 202 °C
- O=S(=O)(Cc1coc(/C=C/c2ccccc2)n1)c1ccc(CCCn2ccnc2)cc1 — lower, 116 to 117 °C
- Cc1c(C)c2c(c(C)c1O)CCC(C)(CCOc1ccc(CC3SC(=N)NC3=O)cc1)O2 (centres undefined) — higher, 175 to 180 °C
- C=CCOc1nccnc1Cl — higher, 149 to 150 °C
- CCC(C)Nc1nc(Cc2cc(OC)c(OC)c(OC)c2)nc2sc(C#N)c(C)c12 (centres undefined) — higher, 134 to 137 °C
- CS(=O)(=O)Oc1ccccc1S(=O)(=O)Cl — lower, 94 to 95 °C
- COc1cc(COc2nn(-c3ccccc3)cc2/C=C/S(C)=O)ccc1OCc1nc(-c2ccco2)oc1C (centres undefined) — higher, 156 to 157 °C
- CCOC(=O)/C=C/c1cnc(-c2ccc(OCc3ccccc3)c(C34CC5CC(CC(C5)C3)C4)c2)nc1 — higher, 164 to 167 °C
- CCCCCCCCCCCCN(CCCCCCCCCCCC)C(=O)c1c(C)cc(C)c(C)c1O — lower, 56 °C
- NCC1Cc2cc(-c3ccc(F)cc3)cc(F)c2O1 (centres undefined) — higher, > 250 °C
- NCc1ccc(N2CCN(c3ccc(CCC(=O)O)cc3)C2=O)cc1 — higher, > 260 °C
- COCC(=O)C(=NNc1ccc(I)cc1F)C(=O)OC — higher, 141 to 146 °C
- Cn1c2cc(Cl)ccc2c2c(Cl)nc(-c3ccncc3)nc21 — higher, 272 to 274 °C
- COc1ccc(C2(CCN3CCC(C(=O)c4nc5ccccc5n4Cc4ccc(F)cc4)CC3)CCN(C(=O)c3cc(OC)c(OC)c(OC)c3)C2)cc1OC (centres undefined) — lower, 80 to 83 °C
- O=C(CBr)OCN1C(=O)NC(c2ccccc2)(c2ccccc2)C1=O — higher, 179 to 183 °C
- Cc1cc(Oc2cc(C(F)(F)F)ccn2)ccc1OCCNc1ncnc2scnc12 — lower, 107 to 111 °C
- O=C(c1cccnc1)c1cc(-c2ccncc2)c(N2CCOCC2)s1 — higher, 124 °C
- CCCCCCC(=O)N(CCCCn1ccnc1)C1=Nc2cccc3cccc1c23 — lower, 82 to 84 °C
- Cc1ccc(S(=O)(=O)OCC2COc3cccc4[nH]c(=O)n2c34)cc1 (centres undefined) — higher, 140 to 142 °C
- Cc1ccsc1-c1ccc(C2(C)NC(=O)NC2=O)cc1 (centres undefined) — higher, 201 to 202 °C
- Nc1nc2ccccc2c2c1ncn2CCOCC#Cc1ccc(Oc2ccccc2)cc1 — higher, 146 to 148 °C
- O=C1CCCC(c2ccccc2)N1c1ccccc1 (centres undefined) — higher, 123 to 125 °C
- O=C1NC(=O)C(Cc2ccc(OC[C@@H]3CCCN3c3ccccn3)cc2)S1 (some centres undefined) — lower, 78 to 80 °C
- Cc1nc(-c2ccc(C(F)(F)F)cc2)sc1CCOc1ccc(CCC(=O)O)cc1 — higher, 128 to 130 °C
- Cc1oc(-c2ccc(F)cc2)nc1COc1cccc(Cn2oc(=O)[nH]c2=O)c1 — higher, 163 to 164 °C
- CC(=O)c1ccccc1Nc1nc(Nc2ccc3c(c2)CCCC(=O)N3C)ncc1Cl — higher, 215 to 217 °C
- C=Cc1ncc2c(c1O)COC2C (centres undefined) — higher, 237 to 238 °C
- COC(=O)C1=C(C)NC(C)=C(C(=O)OCCCCCCOc2cc(-c3ccc(OC)cc3)[nH]n2)C1c1cccc(Cl)c1Cl (centres undefined) — higher, 146 to 148 °C
- CCCCNC(=O)C(C)CC(O)C1C[C@H](C)CCCCCCNc2cc(cc(OC)n2)C(=O)N1 (some centres undefined) — higher, 178 to 182 °C
- CC(=O)N(CC(=O)O)c1c(C(=O)c2ccccc2)[nH]c2cc(Cl)ccc12 — higher, 148 to 154 °C
- O=CN1C(=O)[C@H]2N=C(Cc3ccccc3)O[C@H]21 — lower, 90 to 92 °C
- O=S(=O)(c1ccc(F)cc1)c1ccc(SC2SCC(O)C(O)C2O)cc1 (centres undefined) — higher, 136 to 138 °C
- Cn1c(COc2ccc(CC3SC(=O)N(C(c4ccccc4)(c4ccccc4)c4ccccc4)C3=O)cc2)nc2cncnc21 (centres undefined) — lower, 55 to 65 °C
- Nc1cccc(-c2ccc(CCNCc3ccc(Cl)c(Cl)c3)c3ccccc23)n1 — higher, 145 to 170 °C
- Cc1cc(-c2ccc(C(F)(F)F)cn2)nc(-c2cccc(-c3cccc(S(N)(=O)=O)c3)n2)n1 — higher, 246 to 252 °C
- O=C(c1ccccc1)c1[nH]c2cc(Cl)ccc2c1NC(=O)C(F)(F)F — higher, 165 to 168 °C
- CC(C)n1nc(OS(=O)(=O)C(F)(F)F)ccc1=O — lower, 45 to 46 °C
- CC(=O)Nc1ccc2c3c1c(=O)c(C(=O)O)cn3CCC2 — higher, > 300 °C
- CC(C)n1nc(-c2sc(C(N)=O)nc2-c2cccc(Cl)c2)ccc1=O — higher, 232 to 234 °C
- Cc1cc2nc(C=Cc3ccc(C(=O)O)cc3)oc2cc1C — higher, > 300 °C
- CO/C=C(/C(=O)OC)c1ccccc1Oc1cccc(N)c1 — lower, 83 to 85 °C
- COc1cc(-c2ccc(O)c(C3(C)CCCCC3)c2)cc(CC2SC(N3CCCC3)=NC2=O)c1O (centres undefined) — higher, 204 to 206 °C
- COc1ccc(CCC2OC(=O)NC2=O)cc1O (centres undefined) — higher, 121 to 122 °C
- O=C1CC(C(=O)NC(Cc2ccc(C(F)(F)F)cc2)C(O)c2ccc(F)cc2)c2ccccc21 (racemic) — higher, 237 to 238 °C
- O=C(c1ccc([N+](=O)[O-])cc1Cl)N1CCCCc2ncccc21 — higher, 143 to 145 °C
- CC(C)(Cc1c[nH]c2ccc(Br)cc12)[N+](=O)[O-] — lower, 106 to 109 °C
- COc1ccc2c(OCCN3CCOCC3)c(-c3ccccc3)c(=O)oc2c1 — lower, 95 to 96 °C
- COc1ccccc1-c1oc2cccc3c2c1C=CC3=O — higher, 144 °C
- COc1cc(OC)nc(C(=O)O)n1 — higher, 155 to 157 °C
- Cc1ncsc1C(=O)Nc1ccc(-n2nc(C(F)(F)F)c(Cl)c2C2CC2)nc1 — higher, 144 to 149 °C
- COC(=O)COc1ccc(C(=O)CN(C)C(=O)OCc2ccccc2)cc1OCC(=O)OC — lower, 56 to 59 °C
- OCc1cccc(-n2cccc2)c1 — lower, 64 to 67 °C
- COc1ccc2c(c1)CC(C(=O)O)CC2 (centres undefined) — not separable, 119 to 122 °C
- COc1ccc(CC2Cc3cc(C)cnc3C(OC(C)=O)C2)cc1 (single isomer, unassigned; (+)) — lower, 94 to 98 °C
- CCCCn1c(=O)c2c(ncn2S(=O)(=O)c2c(C)cc(C)cc2C)n(CCCC)c1=O — higher, 125 to 127 °C
- CC1CCC(C(C)C)C(OC(=O)N2CC3CC(C2)CN(C(=O)C2(O)NCCC2Oc2ccc(C#N)cc2)C3)C1 (single isomer, unassigned; (-)) — lower, 111 to 112 °C
- CCc1nc2c(O)c(CCC(=O)c3ccccc3)c(C(=O)N(C)C)cc2n1C — higher, 177 to 180 °C
- Cc1cc(C)c(C)c(COc2ccc(-c3ccoc3C(=O)NNC(=O)c3ccc(O)c(C#N)c3)cc2)c1C — higher, 183 to 186 °C
- CCCCN(CC1Cc2cc(Cl)cc(Cl)c2O1)C(=O)n1ccnc1 (centres undefined) — lower, 98 to 100 °C
- NC1CN(c2cc3c(cc2F)c(=O)c(C(=O)O)cn3C2CC2)C1 — higher, 246 to 247 °C
- CC(=O)N1CCc2cc(CC(C)Br)cc([N+](=O)[O-])c21 (centres undefined) — not separable, 119 to 120 °C
- O=C1Nc2cccnc2N(CC#CCN2CCCC2)c2ccccc21 — higher, 153 °C
- Cc1cc(C)c2c(c1C)OC(C)(C)C2c1ccc(N(C)C)cc1 (centres undefined) — higher, 124 to 125 °C
- COc1ccc([C@H]2SC=C(c3ccccc3)N(CCN(C)C)C(=O)[C@H]2O)cc1 — lower, 110 to 112 °C
- COc1cccc(CN2CCc3cc(O)c(OC)cc3C2C)c1 (centres undefined) — lower, 97 to 99 °C
- O=C(Oc1ccc(Cl)c(Cl)c1)c1cc2c(cn1)[nH]c1ccccc12 — higher, 260 to 261 °C
- Cc1nnc(Sc2ncnc3c(C)csc23)s1 — higher, 144 to 147 °C
- COC(=O)C(C)(C)OCc1cc2cc(C(F)(F)F)ccc2n1S(=O)(=O)c1cccc2nc(C)sc12 — not separable, 118 to 120 °C
- CCN1CC(CCCl)N(C)c2ccccc2C1=O (centres undefined) — lower, 75 to 79 °C
- COc1cc(OC)c2c(=O)[nH]c(-c3ccc(OC)c(-c4ccc(S(C)(=O)=O)cc4)n3)nc2c1 — higher, 279 to 281 °C
- CC(C)(C)N1CC(=O)Nc2ccc(I)cc2C1=O — higher, 230 to 232 °C
- O=C1c2cc(Cl)ccc2CN2C(=NO)CCC12 (centres undefined) — higher, 130 to 136 °C
- Brc1cccc(Sc2ccccc2)n1 — lower, 47 °C
- CCC(CC)(CO)CCS(N)(=O)=O — lower, 79 to 80 °C
- CC(=O)C1(C)COC(c2ccc([N+](=O)[O-])cc2)OC1 (centres undefined) — lower, 101 to 102 °C
- CCOC(=O)C1CS(=O)(=O)c2c(C(=O)c3ccccc3)cc(Cl)cc21 (centres undefined) — higher, 138 to 139 °C
- OC(CNCCNc1ccc(Cl)nn1)COc1ccccc1 (centres undefined) — higher, 147 to 149 °C
- Cc1nn(C)c2ncc3c(c12)CC(C)CC3 (centres undefined) — higher, 121 to 123 °C
- O=C1c2ccccc2C(=O)N1OCC/C=C/c1cccs1 — lower, 69 to 71 °C
- CCOC(=O)c1c(Cl)nc2ccccc2c1-c1ccc(F)cc1 — lower, 113 to 114 °C
- O=c1c2ccccc2sc2cc(F)ccc12 — higher, 168 °C
- COc1c(F)cc(CCC(=O)O)cc1F — lower, 72 to 73 °C
- CCOC(=O)C1=C(NC(C)=O)Oc2cc(O)ccc2C1c1cccnc1 (centres undefined) — higher, 216 to 218 °C
- COc1ccc(-c2cc(F)cc3c2NC(CN)CO3)cc1 (centres undefined) — lower, 72 °C
- O=C(O)c1cc(S(=O)C(F)(F)F)c(Cl)cc1Cl (centres undefined) — higher, 176 to 178 °C
- CC(=O)Oc1cccc(C(=O)N[C@H]2COC(C)(C)OC[C@@H]2OS(C)(=O)=O)c1C — higher, 127 to 128 °C
- COc1ccc(Nc2nc(-c3ccncc3)cs2)nc1 — higher, 213 to 214 °C
- OCC1OC(n2cc(COc3ccc(C4=NC(=Nc5[nH]c(-c6ccc(O)cc6)cc5-c5ccccc5)C(c5ccccc5)=C4)cc3)nn2)C(O)C(O)C1O (centres undefined) — higher, 180 to 182 °C
- COc1cc(C)nc(C)c1C(=O)OC(C)c1nc2c(c(=O)n(C)c(=O)n2C)n1C (centres undefined) — higher, 135 to 138 °C
- CCOC(=O)C1=NNc2ccc(-c3ccc(Cl)cc3)cc2C1 — higher, 254 to 256 °C
- NC(=O)c1nccc(Cl)c1Cl — higher, 174 to 175 °C
- COc1ccc(C(C)=O)c2c1CCN2C(C)=O — lower, 88 to 89 °C
